Results taken from patent EP0322748B1, “Antibiotic NK86-0279, process for production of the same and application of the same” (NIPPON KAYAKU KABUSHIKI KAISHA, priority 1987, dated 1989).

Key:
[1] = tested on: mouse breast cancer (Ehrlich B); assay: anti-cancer action against grafted mouse breast cancer, tumor volume; format: in vivo
Excerpt: The anti-cancer action of the compound of the present invention against mouse lung cancer (lewis lung carcinoma) and mouse breast cancer (Ehrlich B) was examined. 1 x 10⁶ mouse lung cancer cells or mouse breast cancer cells were grafted into a subcutaneous portion of the groin of an eight week-old male BDF₁ or ICR mouse, and the compound of the present invention was intraperitoneally administered to the mouse in various concentrations every day from two days after the graft once a day for 9 days. On the second day after completion of the administration, the minor axis and the major axis of the tumor were measured, and the volume of the tumor was determined by using the following equation: (minor axis)² x […]/2 [formula] . Then, the percentage inhibition of proliferation of each tumor with respect to the compound of the present invention was determined from the ratio of the volume of the tumor on the groups of administration of the compound of the present invention relative to that on the control group.

[2] = tested on: mouse malignant melanoma (B16 melanotic melanoma); assay: in-vivo test by intraperitoneal administration against mouse malignant melanoma, tumor volume; parameters: species or system BDF₁ mouse; settings: 11 days after inoculation
Excerpt: The anti-cancer action of the compound of the present invention against mouse malignant melanoma (B16 melanotic melanoma) was examined. 4 x 10⁵ mouse malignant melanoma cells were inoculated into a subcutaneous portion of the right body side of a 8 week-old male BDF₁ mouse, and the compound of the present invention was intraperitoneally administered to the mouse in various concentrations every day from the next day of the inoculation once a day for 10 days. On the 11 days after the inoculation the minor axis and the major axis of the tumor were measured, and the volume of the tumor was determined by using the following equation: (minor axis)² x […] [formula] . Then, the percentage inhibition of proliferation of each tumor with respect to the compound of the present invention was determined from the ratio of the volume of the tumor on the groups of administration of the compound of the present invention relative to that on the control group.

[3] = tested on: mouse malignant melanoma (B16 melanotic melanoma); assay: in-vivo test by intravenous administration against mouse malignant melanoma, tumor volume; parameters: species or system C57BL/6 mouse
Excerpt: (§1) The anti-cancer action of the compound of the present invention against mouse malignant melanoma (B16 melanotic melanoma) was examined. 5 x 10⁵ mouse malignant melanoma cells were inoculated into a subcutaneous portion of the right body side of a 6 week-old male C57BL/6 mouse, and the compound of the present invention was intravenously administered to the mouse in various concentrations every day from the next day or from 7 days after the inoculation once a day for 5 days. On the 11 days after the inoculation, the minor axis and the major axis of the tumor were measured, and the volume of the tumor was determined by using the following equation: (minor axis)² x […]/2 [formula] . Then, the percentage inhibition of proliferation of each tumor with respect to the compound of the present invention was determined from the ratio of the volume of the tumor on the groups of administration of the compound of the present invention relative to that on the control group.

[4] = tested on: mouse malignant melanoma (B16 melanotic melanoma); assay: in-vivo test by peroral administration against mouse malignant melanoma, tumor volume; parameters: species or system C57BL/6 mouse
Excerpt: as §1, with “perorally” for “intravenously”

[5] = tested on: two-spotted spider mite acarids (a Kelthane-resistant species); assay: insecticidal action, mortality rate of spider mites; format: in vivo; settings: Tetranychus urticae, 48 h, Imagos of two-spotted spider mite, after 2 days
Experimental: The insecticidal action of the compound of the present invention was examined by the following method. • (1) An imago of two-spotted spider mite acarids (a Kelthane-resistant species) was used as a test vermin, and the mortality rate thereof was assayed according to an ordinary method (described on page 327 of "Noyaku Seibutsu Kenteiho" edited by Toyoji Hosotsuji). Specifically, a solution of the compound of the present invention in acetone (0.1 %) was added to 0.5 ml of an aqueous sucrose solution (1 %) to have a predetermined concentration. Ten two-spotted spider mite acarids were released in a vessel (200-ml beaker), and the vessel was covered with a paraffin film. The agent solution prepared above was put on the paraffin film, and another praffin film was put thereon. The beaker was allowed to stand in a thermostatic chamber (20 ± 1°C) for a predetermined period of time, and the life and death of the test vermin was investigated. • (2) A larva of mosquito culices (a sensitive species) was used as a test vermin, and the mortality rate thereof was assayed according to an ordinary method (described on page 109 of "Noyaku Jikkenho I, Sacchuzaihen" published by Soft Science, Inc.). Specifically, 10 ml of well water was placed in a vessel (15-ml Schale), and 5 larvae of mosquito culices (the third stage) were released in the vessel. A solution of the compound of the present invention in acetone (0.1 %) was added thereto so as to have a predetermined concentration. The vessel was allowed to stand in a thermostatic chamber (26 ± 1°C) for a predetermined period of time, and the life and death of the test vermin was investigated.

acute toxicity = settings: mouse, in vivo, ip; mice

Structure (SMILES): CCC1C=CC=CCC(C)C(O)C(C)(O)C(=O)C(C)C(O)C(C)C(=O)C(C)C(O)C(C)C=CC(=O)OC2C(C)C(CC1)OC1(OC(CC(C)O)C(C)CC1=O)C2CC (stereo not drawn) [NK86-0279]
- Growth-inhibitory ratio (tumor volume) ([1]; 0.032 mg/kg intraperitoneally once a day for 9 days): 22.5%
- Growth-inhibitory ratio (tumor volume) ([1]; 0.063 mg/kg intraperitoneally once a day for 9 days): -0.4%
- Growth-inhibitory ratio (tumor volume) ([1]; 0.125 mg/kg intraperitoneally once a day for 9 days): 44.3%
- Growth-inhibitory ratio (tumor volume) ([1]; 0.250 mg/kg intraperitoneally once a day for 9 days, 0.25 mg/kg): 67%
- Growth-inhibitory ratio (tumor volume) ([1]; 0.500 mg/kg intraperitoneally once a day for 9 days): 61.7%
- Growth-inhibitory ratio (tumor volume) ([2]; 0.012 mg/kg intraperitoneally once a day for 10 days): 50.7%
- Growth-inhibitory ratio (tumor volume) ([2]; 0.021 mg/kg intraperitoneally once a day for 10 days): 19.3%
- Growth-inhibitory ratio (tumor volume) ([2]; 0.037 mg/kg intraperitoneally once a day for 10 days): 41.4%
- Growth-inhibitory ratio (tumor volume) ([2]; 0.064 mg/kg intraperitoneally once a day for 10 days): 40.5%
- Growth-inhibitory ratio (tumor volume) ([2]; 0.111 mg/kg intraperitoneally once a day for 10 days): 38.4%
- Growth-inhibitory ratio (tumor volume) ([2]; 0.192 mg/kg intraperitoneally once a day for 10 days): 54.7%
- Growth-inhibitory ratio (tumor volume) ([2]; 0.333 mg/kg intraperitoneally once a day for 10 days): 53.2%
- Growth-inhibitory ratio (tumor volume) ([2]; 0.577 mg/kg intraperitoneally once a day for 10 days): 60.4%
- Growth-inhibitory ratio (tumor volume) ([2]; 1.000 mg/kg intraperitoneally once a day for 10 days): 80%
- Growth-inhibitory ratio (tumor volume) ([3]; 0.05 mg/kg intravenously once a day for 5 days, administered from 7 days after the inoculation): 57.4%
- Growth-inhibitory ratio (tumor volume) ([3]; 0.05 mg/kg intravenously once a day for 5 days, administered from the next day of the inoculation): 57.0%
- Growth-inhibitory ratio (tumor volume) ([3]; 0.10 mg/kg intravenously once a day for 5 days, administered from 7 days after the inoculation): 69.1%
- Growth-inhibitory ratio (tumor volume) ([3]; 0.10 mg/kg intravenously once a day for 5 days, administered from the next day of the inoculation): 62.9%
- Growth-inhibitory ratio (tumor volume) ([3]; 0.20 mg/kg intravenously once a day for 5 days, administered from 7 days after the inoculation): 76.6%
- Growth-inhibitory ratio (tumor volume) ([3]; 0.20 mg/kg intravenously once a day for 5 days, administered from the next day of the inoculation): 56.9%
- Growth-inhibitory ratio (tumor volume) ([3]; 0.40 mg/kg intravenously once a day for 5 days, administered from 7 days after the inoculation): 81.9%
- Growth-inhibitory ratio (tumor volume) ([3]; 0.40 mg/kg intravenously once a day for 5 days, administered from the next day of the inoculation): 50.5%
- Growth-inhibitory ratio (tumor volume) ([4]; 0.5 mg/kg perorally once a day for 5 days, administered from 7 days after the inoculation): 44.7%
- Growth-inhibitory ratio (tumor volume) ([4]; 0.5 mg/kg perorally once a day for 5 days, administered from the next day of the inoculation): 90.5%
- Growth-inhibitory ratio (tumor volume) ([4]; 1.0 mg/kg perorally once a day for 5 days, administered from 7 days after the inoculation): 72.3%
- Growth-inhibitory ratio (tumor volume) ([4]; 1.0 mg/kg perorally once a day for 5 days, administered from the next day of the inoculation): 94.6%
- Growth-inhibitory ratio (tumor volume) ([4]; 2.0 mg/kg perorally once a day for 5 days, administered from 7 days after the inoculation): 57.4%
- Growth-inhibitory ratio (tumor volume) ([4]; 2.0 mg/kg perorally once a day for 5 days, administered from the next day of the inoculation): 69.5%
- Growth-inhibitory ratio (tumor volume) ([4]; 4.0 mg/kg perorally once a day for 5 days, administered from 7 days after the inoculation): 75.5%
- Growth-inhibitory ratio (tumor volume) ([4]; 4.0 mg/kg perorally once a day for 5 days, administered from the next day of the inoculation): 64.5%
- Growth-inhibitory ratio (tumor volume) ([4]; 8.0 mg/kg perorally once a day for 5 days, administered from 7 days after the inoculation): 67.0%
- Growth-inhibitory ratio (tumor volume) ([4]; 8.0 mg/kg perorally once a day for 5 days, administered from the next day of the inoculation): 66.0%
- mortality at 1 ppm ([5]; 1 ppm): 100%
- mortality at 10 ppm ([5]; 10 ppm): 100%
- mortality at 100 ppm ([5]; 100 ppm): 100%
- LD50 (acute toxicity): 1.67 mg/kg
